Columns and labels:
[1] = Cytotoxicity against human Chang liver cells assessed as cell growth inhibition measured after 24 hrs by DAPI and propidium iodide staining based assay; assay type: toxicity
M-HeLa = test: Anticancer activity against human HelaM cells assessed as cell growth inhibition measured after 24 hrs by DAPI and propidium iodide staining based assay; assay type: functional
FaDu = test: Anticancer activity against human FaDu cells assessed as cell growth inhibition; assay type: functional, cell-based
HCT-116 = test: Anticancer activity against human HCT-116 cells assessed as cell growth inhibition measured after 48 hrs by MTT assay; assay type: functional, cell-based; settings: HCT-116, 48 h
HepG2 = test: Anticancer activity against human HepG2 cells assessed as cell growth inhibition measured after 48 hrs by MTT assay; assay type: functional, cell-based; settings: HepG2, 48 h
MCF7 = test: Anticancer activity against human MCF7 cells assessed as cell growth inhibition measured after 48 hrs by MTT assay; assay type: functional, cell-based; settings: MCF7, 48 h

| SMILES | IC50 at 24 h [1] | IC50 (M-HeLa) | IC50 (FaDu) | also measured |
| --- | --- | --- | --- | --- |
| O=[N+]([O-])c1c(Cl)cc2c(no[n+]2[O-])c1Nc1cccc(O)c1 | > 100 µM | ≥ 14.7 µM |  |  |
| O=C1Nc2ccc(OC(F)(F)F)cc2[C@@]12N[C@H](Cc1c[nH]cn1)[C@@H]([N+](=O)[O-])[C@@H]2c1ccccc1Cl |  |  | ≥ 30 µM |  |
| O=C1Nc2ccc(OC(F)(F)F)cc2[C@@]12N[C@H](Cc1c[nH]c3ccccc13)[C@@H]([N+](=O)[O-])[C@@H]2c1ccc(Br)cc1 |  |  | ≥ 30 µM |  |
| O=[N+]([O-])c1c(Cl)cc2c(no[n+]2[O-])c1Nc1ccc(-c2ccccc2)c(O)c1 | > 100 µM | ≥ 14.7 µM |  |  |
| O=C(/C=C/c1cccc(Br)c1)[C@H]1[C@H](c2cccc(Br)c2)C2CSCN2C12C(=O)Nc1c(Br)cc(Br)cc12 (stereo partly specified) |  |  |  | IC50 (HCT-116): < 3 µM |
| O=C1Nc2ccccc2[C@@]12N[C@H](Cc1c[nH]cn1)[C@@H]([N+](=O)[O-])[C@@H]2c1ccc(Br)cc1 |  |  | 40.1 µM |  |
| Oc1ccc2c(c1)OCO2 | > 100 µM | 14.7 µM |  |  |
| CCCCCCc1c(O)cc(C)oc1=O | > 100 µM | ≥ 14.7 µM |  |  |
| O=[N+]([O-])c1c(Cl)cc2c(no[n+]2[O-])c1Nc1ccc(-c2ccc(F)cc2)c(O)c1 | > 100 µM | ≥ 14.7 µM |  |  |
| O=C1Nc2ccccc2[C@@]12N[C@H](Cc1c[nH]cn1)[C@@H]([N+](=O)[O-])[C@@H]2c1ccccc1 |  |  | 43 µM |  |
| O=[N+]([O-])c1c(Cl)cc2c(no[n+]2[O-])c1Nc1ccc(C2CCCCC2)c(O)c1 | > 100 µM | ≥ 14.7 µM |  |  |
| Cc1ccc([C@H]2[C@H]([N+](=O)[O-])[C@@H](Cc3c[nH]cn3)N[C@]23C(=O)Nc2ccccc23)cc1 |  |  | ≥ 30 µM |  |
| O=C1Nc2ccc(OC(F)(F)F)cc2[C@@]12N[C@H](Cc1c[nH]cn1)[C@@H]([N+](=O)[O-])[C@@H]2c1ccc(Br)cc1 |  |  | ≥ 30 µM |  |
| O=c1cc(O)c2ccccc2o1 [4-HYDROXYCOUMARINS] | > 100 µM | ≥ 14.7 µM |  |  |
| O=C1Nc2ccc(OC(F)(F)F)cc2[C@@]12N[C@H](Cc1c[nH]c3ccccc13)[C@@H]([N+](=O)[O-])[C@@H]2c1cccc([N+](=O)[O-])c1 |  |  | ≥ 30 µM |  |
| COc1ccc(-c2cc3c(cc2O)OCO3)cc1 | > 100 µM | 14.7 µM |  |  |
| COc1ccc(-c2c(O)cc(C)oc2=O)cc1 | > 100 µM | ≥ 14.7 µM |  |  |
| Cc1ccc([C@H]2[C@H]([N+](=O)[O-])[C@@H](Cc3c[nH]c4ccccc34)N[C@]23C(=O)Nc2ccc(OC(F)(F)F)cc23)cc1 |  |  | ≥ 30 µM |  |

| SMILES | IC50 at 24 h [1] | IC50 (M-HeLa) | IC50 (FaDu) | also measured |
| --- | --- | --- | --- | --- |
| COc1ccc(-c2ccc(Nc3c([N+](=O)[O-])c(Cl)cc4c3no[n+]4[O-])cc2O)cc1 | > 100 µM | ≥ 14.7 µM |  |  |
| CN(C)CCc1ccc(Nc2c([N+](=O)[O-])c(Cl)cc3c2no[n+]3[O-])cc1O | > 100 µM | ≥ 14.7 µM |  |  |
| O=C1Nc2ccc(OC(F)(F)F)cc2[C@@]12N[C@H](Cc1c[nH]cn1)[C@@H]([N+](=O)[O-])[C@@H]2c1ccc(Cl)cc1 |  |  | ≥ 30 µM |  |
| O=C(/C=C/c1cccc([N+](=O)[O-])c1)[C@H]1[C@H](c2cccc([N+](=O)[O-])c2)C2CSCN2C12C(=O)Nc1c(Br)cc(Br)cc12 (stereo partly specified) |  |  |  | IC50 (HepG2): 5 µM; IC50 (HCT-116): 2.8 µM; IC50 (MCF7): 4 µM |
| O=C1Nc2ccc(OC(F)(F)F)cc2[C@@]12N[C@H](Cc1c[nH]cn1)[C@@H]([N+](=O)[O-])[C@@H]2c1cccc([N+](=O)[O-])c1 |  |  | ≥ 30 µM |  |
| O=C1Nc2ccccc2[C@@]12N[C@H](Cc1c[nH]c3ccccc13)[C@@H]([N+](=O)[O-])[C@@H]2c1ccc(Br)cc1 |  |  | 39.7 µM |  |
| O=C1Nc2ccccc2[C@@]12N[C@H](Cc1c[nH]c3ccccc13)[C@@H]([N+](=O)[O-])[C@@H]2c1ccccc1Cl |  |  | ≥ 30 µM |  |
| COc1ccc(-c2c(O)c3ccccc3oc2=O)cc1 | > 100 µM | ≥ 14.7 µM |  |  |
| O=c1oc2ccccc2c(O)c1C1CCCCC1 | > 100 µM | ≥ 14.7 µM |  |  |
| CCCCCCc1c(O)c2ccccc2oc1=O | > 100 µM | ≥ 14.7 µM |  |  |
| Cc1ccc([C@H]2[C@H]([N+](=O)[O-])[C@@H](Cc3c[nH]c4ccccc34)N[C@]23C(=O)Nc2ccccc23)cc1 |  |  | ≥ 30 µM |  |
| Cc1cc(O)c(C2CCCCC2)c(=O)o1 | > 100 µM | ≥ 14.7 µM |  |  |
| Oc1cc2c(cc1-c1ccc(F)cc1)OCO2 | > 100 µM | 14.7 µM |  |  |
| O=C1Nc2ccccc2[C@@]12N[C@H](Cc1c[nH]c3ccccc13)[C@@H]([N+](=O)[O-])[C@@H]2c1ccccc1 |  |  | 30 µM |  |
| O=C(/C=C/c1ccco1)[C@H]1[C@H](c2ccco2)C2CSCN2C12C(=O)Nc1c(Br)cc(Br)cc12 (stereo partly specified) |  |  |  | IC50 (HepG2): ≥ 0.8 µM; IC50 (HCT-116): 1.57 mg/L; IC50 (MCF7): 2.5 mg/L |
| O=c1oc2ccccc2c(O)c1-c1ccc(Br)cc1 | > 100 µM | ≥ 14.7 µM |  |  |
| O=C1Nc2ccccc2[C@@]12N[C@H](Cc1c[nH]cn1)[C@@H]([N+](=O)[O-])[C@@H]2c1ccccc1Cl |  |  | ≥ 30 µM |  |
